Experimental data reported in PMC11253624, “Unsaturated fatty acid perturbation combats emerging triazole antifungal resistance in the human fungal pathogen Aspergillus fumigatus” (mBio, 2024).
≈ marks a conversion by molar mass, not a printed value. Where two headings read alike, the source gives them in different places.

Assays:
Cryptococcus neoformans [1] = assay: FIC checkerboard assay MBX-7591 and oleic acid, C. neoformans; format: cell-based; details: H99, MBX-7591 + 31.25 μg/ml OA
Description: Single-treatment controls were completed with 50 µL of media to substitute the volume of the other compound. […] Additional untreated and media-only controls were added to the plate as described above. Incubation of the plates and MIC assessments (individual and in combination) were performed as described above. FIC calculations were done according to the established formula: ∑FIC=MIC combination compound A/MIC individual compound A + MIC combination compound B/MIC individual compound B . Synergy was considered equal or lower than 0.5, and antagonism was considered to be higher than 2. FIC scores reported represent between three and five biological replicates. All antifungal susceptibility testing was done in 96-well plates using RPMI 1640 media buffered with 165 mM of MOPS and pH 7 using NaOH. CLSI-based microbroth dilution assays were done in accordance with M27 ([49]). […] Additionally, an untreated control (100 µL of a stock of 2 × 10^3 spores/mL and 100 µL of media) and a media-only control (200 µL media) were included in the plate. The plate was covered in a Breathe-Eazy membrane to allow for uniform oxygen diffusion throughout the plate and incubated for 24 hours at 35°C (Candida spp.) or 72 hours at 35°C ± 5% CO2 (Cryptococcus neoformans).

Aspergillus nidulans = assay: microbe, parasite or virus in culture; format: cell-based; details: strain FGSC A4
Aspergillus niger = assay: CLSI-based microbroth dilution MIC, spectrum of activity; format: cell-based
Candida auris = assay: CLSI-based microbroth dilution MIC for yeast; format: cell-based; details: Candidozyma auris
Fusarium spp. = assay: CLSI-based microbroth dilution MIC, spectrum of activity; format: cell-based; details: solani and oxysporum
Caco-2 permeability = format: in vitro ADME; details: human
A. fumigatus CEA10 = assay: Fatty acid profile of 24-hour biofilms by GC-MS; format: cell-based, Aspergillus fumigatus; details: CEA10 24-hour biofilm; MBX-7591 0.58 µg/mL, voriconazole 0.0625 µg/mL
Cryptococcus neoformans [2] = assay: CLSI-based microbroth dilution MIC for yeast; format: cell-based; details: for MIC: Cryptococcus neoformans
[3] = test system: A. fumigatus strain ATCC46645; assay: Murine model of invasive pulmonary aspergillosis; format: in vivo, mouse
Description: Outbred wild-type CD-1 female mice at 20–24 g (Charles River Laboratory, Raleigh, NC, USA) were randomized and housed in autoclaved cages at ≤4 mice per cage with HEPA-filtered air and water. Mice were immunosuppressed by subcutaneous injection with triamcinolone acetonide (Kenalong-10, Bristol-Myer Squibb) at 40 mg/kg of body weight. Twenty-four hours after immune suppression, mice were intranasally inoculated with 2 × 10^6 live conidia (in 40 µL of sterile PBS) or PBS alone as a control. A. fumigatus strain ATCC46645 was grown on 1% GMM for 3 days at 37°C, conidia were collected in 0.01% Tween, and washed three times in sterile PBS. Immediately after fungal inoculation, mice were intraperitoneally (IP) injected with either vehicle (5% DMSO/10% PS80/25% HPBCDX 0.07% sodium acetate) or MBX-7591 at 10 mg/kg of body weight (5% DMSO/10% PS80/25% HPBCDX 0.07% sodium acetate). Mice were injected IP with a second dose of vehicle or MBX-7591 at 10 mg/kg of body weight 8 hours after the first dose of the drug. Mice were sacrificed 24 hours post-fungal challenge, lungs were excised from the chest cavity, rinsed in sterile PBS, and flash frozen for fungal burden analysis. Relative fungal burden was assessed through qPCR quantitation of A. fumigatus 18S rDNA as previously described ([38][–][40]).

Candida albicans = assay: CLSI-based microbroth dilution MIC for yeast; format: cell-based
Mucor spp. = assay: CLSI-based microbroth dilution MIC, spectrum of activity; format: cell-based; details: for MIC: Mucor
Aspergillus fumigatus = assay: Colony recovery after CLSI MIC testing (fungicidal test); format: cell-based; details: at MIC (2.453 μg/ml) and 2X MIC (4.906 μg/ml)
Description: Perhaps consistent with these lipid profiling data, transmission electron microscopy images of MBX-7591-treated cells reveal a loss of cellular membrane integrity, a large increase in the electron translucent cell wall, and a significant increase in electron density in the cytoplasm (Fig. S1B). These TEM images are consistent with cell death upon MBX-7591 treatment.
115 Supplementary Figure 1. MBX-7591 pre-treatment induces cell death.
116 A) Biofilms grown for 12 hours with MBX-7591 pre-treatment (PT) are more susceptible to
117 subsequent 6-hour voriconazole (VCZ) treatment. MBX-7591 PT + VCZ biofilms show higher
118 sytox staining and nuclear collapse indicative of increased cell membrane permeability and cell
119 death. B) TEM image of cross section of Aspergillus fumigatus hyphae from 24-hour biofilms
120 grown in vehicle control or 0.588 μg/ml MBX-7591. MBX-7591 induces changes in the cell wall,
121 increased vacuolization and increased cytosolic density (black arrows). C) MBX-7591 reduces
CLSI assay done as described in methods and incubated for 48 hours at
124 37°C, 5%CO2. Subsequently 100 µL of untreated control, ½ MIC, MIC and 2X MIC wells were
125 plated onto GMM and incubated at 37°C, 5%CO2 for 48h. Representative images of fungal
126 growth of 2 independent biological replicates shown.

Scedosporium spp. = assay: CLSI-based microbroth dilution MIC, spectrum of activity; format: cell-based

## O=C(c1ccsc1)N1CCC(Cc2ccc(COc3ccncc3)cc2)CC1 [MBX-7591]
Cryptococcus neoformans [1]
  FIC value: > 4
Aspergillus nidulans
  MIC: > 39.2 µg/mL
Aspergillus niger; Aspergillus niger, strain AN1
  MIC: > 32 µg/mL
Aspergillus niger; strain AN2
  MIC UTHSC: > 32 µg/mL
Candida auris; Clade I, Clade III
  MIC: > 39.2 µg/mL
Candida auris; NIH: DI17-47, DI17-48, DI17-46, read-out: MIC UTHSC
  MIC: > 32 µg/mL
Fusarium spp.
  MIC: > 39.2 µg/mL
Fusarium spp.; read-out: MIC UTHSC
  MIC: > 32 µg/mL
Caco-2 permeability
  efflux ratio: 0.49
Caco-2 permeability; A→B, method b66 gives Papp in cm/s
  Papp A→B: 11 ×10⁻⁶ cm/s
Caco-2 permeability; B→A, method b66 gives Papp in cm/s
  Papp B→A: 5.6 ×10⁻⁶ cm/s
A. fumigatus CEA10
  C14:0 relative percentage of fatty acids: 0.19 ± 0.057
  C15:0 relative percentage of fatty acids: 0.59 ± 0.034
  C16:0 (palmitic acid) relative percentage of fatty acids: 23.30 ± 0.48
  C16:1n7 relative percentage of fatty acids: 0.68 ± 0.040
  C17a relative percentage of fatty acids: 0.15 ± 0.025
  C18:0 (stearic acid) relative percentage of fatty acids: 4.44 ± 0.95
  C18:1n7 relative percentage of fatty acids: 1.30 ± 0.18
  C18:1n9 (oleic acid) relative percentage of fatty acids: 20.48 ± 1.30
  C18:2n6 relative percentage of fatty acids: 48.87 ± 0.91
Cryptococcus neoformans [2]; strain H99, 0% CO2, read-out: MIC 0% CO2
  MIC: > 39.2 µg/mL
Cryptococcus neoformans [2]; strain H99, 5% CO2, Table S4, read-out: MIC 5% CO2
  MIC: 2.45 µg/mL (≈ 6.24 µM)
Cryptococcus neoformans [2]; strain H99, MIC obtained under 5% CO2, Table S3
  MIC: 2.45 µg/mL (≈ 6.24 µM)
Cryptococcus neoformans [2]; strain H99, read-out: MIC UTHSC
  MIC: > 32 µg/mL
Cryptococcus neoformans [2]; strain A7-35-23, 0% CO2
  MIC 0% CO2: > 39.25 µg/mL
Cryptococcus neoformans [2]; strain A7-35-23, 5% CO2
  MIC 5% CO2: 2.45 µg/mL (≈ 6.24 µM)
Cryptococcus neoformans [2]; strain C23, 0% CO2
  MIC 0% CO2: > 39.25 µg/mL
Cryptococcus neoformans [2]; strain C23, 5% CO2
  MIC 5% CO2: 2.45 µg/mL (≈ 6.24 µM)
Cryptococcus neoformans [2]; strain JEC21, 0% CO2
  MIC 0% CO2: > 39.25 µg/mL
Cryptococcus neoformans [2]; strain JEC21, 5% CO2
  MIC 5% CO2: 2.45 µg/mL (≈ 6.24 µM)
[3]; 10 mg/kg IP, two doses
  host toxicity in the IPA murine model: no host-associated toxicity
[3]; CD-1 mice, triamcinolone immunosuppressed, 10 mg/kg IP at 0 and 8 hours, lungs at 24 hours
  lung fungal burden vs vehicle control (18S rDNA qPCR): over threefold decrease in fungal burden
Candida albicans; strain SC5314
  MIC: > 39.2 µg/mL
Candida albicans; strain SC5314, read-out: MIC UTHSC
  MIC: > 32 µg/mL
Mucor spp.; CBS277, strain CBS 277.49
  MIC: > 39.2 µg/mL
Mucor spp.; strain DI15-131, read-out: MIC UTHSC
  MIC: > 32 µg/mL
Mucor spp.; strain Mucor1
  MIC UTHSC: > 32 µg/mL
Mucor spp.; strain Mucor2
  MIC UTHSC: > 32 µg/mL
Aspergillus fumigatus
  colony formation after 48 hours of treatment of conidia: No colony-forming units were observed at or 2× the MIC
Scedosporium spp.; NIH: DI19-67, DI15-15, DI19-66, read-out: MIC UTHSC
  MIC: > 32 µg/mL
Scedosporium spp.; apiospermum (7D7), prolificans (7D8), JI 2018 "typical" (14E6)
  MIC: > 39.2 µg/mL
